Like-named read-outs stand apart in the source and are kept apart here.
Legend:
[1] = tested on: PC3 prostate cancer cells; experiment: MTT cytotoxicity assay, PC3; type: cell-based; settings: Homo sapiens
Description: (§1) The sensitivity of a panel of seven human cancer cell lines to SC144 was assessed by MTT-assay. […] The sensitivity towards SC144 was time- and dose-dependent.
(§2) Cytotoxicity was assessed by a 3-(4,5-dimethylthiazol-2-yl)-2,5-diphenyltetrazolium bromide assay as previously described (Carmichael et al. (1987) Cancer Res. 47:936-42). Briefly, cells were seeded in 96-well microtiter plates (PC3 and DU145 at 5,000 cells/well and LNCaP at 10,000 cells/well; breast and ovarian cells at 4,000 cells/well) and allowed to attach. Cells were subsequently treated with a continuous exposure to the corresponding drug for 72 hours. A 3-(4,5-dimethylthiazol-2-yl)-2,5-diphenyltetrazolium bromide solution (at a final concentration of 0.5 mg/mL) was added to each well and cells were incubated for 4 hours at 37° C. After removal of the medium, DMSO was added and the absorbance was read at 570 nm. All assays were done in triplicate. The IC50 was then determined for each drug from a plot of log(drug concentration) versus percentage of cell kill.

[2] = tested on: DU145 prostate cancer cells; experiment: MTT cytotoxicity assay, DU145; type: cell-based; settings: Homo sapiens; for IC50: DU-145, 72 hours continuous exposure, read-out: IC50 values (mean ± SD)
Description: as §1, §2

HEY ovarian cancer cells = experiment: MTT cytotoxicity assay, HEY; type: cell-based, human; settings: Homo sapiens, HEY; for IC50: 72 hours continuous exposure, read-out: IC50 values (mean ± SD)
Outline: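 Cells seeded at 5,000/well (PC3) or 4,000/well (breast, ovarian lines) and exposed continuously to drug for 72 h. MTT (0.5 mg/mL final) added for 4 h at 37 °C, absorbance read at 570 nm; IC50 taken from log concentration versus percent cell kill, in triplicate.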

[3] = tested on: MCF-7 breast cancer cells; experiment: MTT cytotoxicity assay, MCF-7; type: cell-based, human; settings: for IC50: MCF7, 72 hours continuous exposure, read-out: IC50 values (mean ± SD); for CC50: MTT-assay, read-out: CC50 values (mean ± SD)
Description: as §1, §2

[4] = tested on: MDA-MB-435 breast cancer cells; experiment: MTT cytotoxicity assay, MDA-MB-435; type: cell-based, human; settings: Homo sapiens
Outline: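 Breast cells were seeded at 4,000 cells/well, allowed to attach, then exposed continuously to drug for 72 h. MTT at 0.5 mg/mL final was added for 4 h at 37 °C, formazan dissolved in DMSO and absorbance read at 570 nm, in triplicate. IC50 came from log(concentration) versus percent cell kill.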

[5] = tested on: MDA-MB-468 breast cancer cells; experiment: MTT cytotoxicity assay, MDA-MB-468; type: cell-based; settings: Homo sapiens; for IC50: 72 hours continuous exposure, read-out: IC50 values (mean ± SD)
Description: as §1, §2

[6] = tested on: LNCaP prostate cancer cells; experiment: MTT cytotoxicity assay, LNCaP; type: cell-based; settings: Homo sapiens
Description: as §2
Cytotoxicity was assessed by a 3-(4,5-dimethylthiazol-2-yl)-2,5-diphenyltetrazolium bromide (MTT) assay as previously described.^9 Briefly, cells were seeded in 96-well microtiter plates and allowed to attach. Cells were subsequently treated with continuous exposure to the corresponding drug for 72 h. An MTT solution (at a final concentration of 0.5 mg/mL) was added to each well, and cells were incubated for 4 h at 37° C. After removal of the medium, DMSO was added and the absorbance was read at 570 nm. All assays were done in triplicate. The IC50 was then determined for each drug from a plot of log (drug concentration) versus percentage of cells killed.

CEM or HEY cells = experiment: Cytotoxicity of salicylhydrazides (Table 5); type: cell-based; settings: Homo sapiens
Excerpt: Human prostate cancer cells (PC3, p53 null, AR−; DU145, p53 mutant, AR−; and LNCaP, p53 wild-type, AR+) and breast cancer cells (MCF-7, overexpressed wild-type p53, ER+; MDA-MB-468, p53 mutant, […]; and MDA-MB-435, p53 mutant, ER−) were obtained from American Type Cell Culture (Manassas, Va.). The human ovarian carcinoma cell line (HEY) naturally resistant to cisplatin (CDDP) was kindly provided by Dr. Dubeau (University of Southern California Norris Cancer Center; Buick et al. (1985) Cancer Res. 45:3668-76 and Hamaguchi et al. (1993) Cancer Res. 53:5225-32). The results with CEM cells were previously described (Neamati et al. (1998) J. Med. Chem. 41:3202-9). Cells were maintained as monolayer cultures in RPMI 1640 supplemented with 10% fetal bovine serum (Gemini-Bioproducts, Woodland, Calif.) and 2 mmol/L L-glutamine at 37° C. in a humidified atmosphere of 5% CO2. To remove the adherent cells from the flask for passaging and counting, cells were washed with PBS without calcium or magnesium, incubated with a small volume of 0.25% trypsin-EDTA solution (Sigma-Aldrich, St. Louis, Mo.) for 5 to 10 minutes, and washed with culture medium and centrifuged. All experiments were done using cells in exponential cell growth.
as §2

MDA-MB-435 cells = experiment: MTT assay, continuous drug exposure for 48 hours (Table 3); type: cell-based, human; settings: for IC80: MDA-MB-435, read-out: CC80
[7] = tested on: MCF-7/ADR breast cancer cells; experiment: MTT cytotoxicity assay, MCF-7/ADR; type: cell-based; settings: Homo sapiens, NCI/ADR-RES, read-out: CC50 values (mean ± SD)
Description: as §1

UO-31 renal cancer cells = experiment: Sensitivity of various cancer cells to SC144, UO-31; type: cell-based; settings: Homo sapiens
Excerpt: (§3) The studies were expanded to other cell lines. […] Subnanomolar to low nanomolar potency was also observed in HCT-116 and HT29 colon cancer cell lines (Table 2).

[8] = tested on: HCT-116 colon cancer cells; experiment: Sensitivity of various cancer cells to SC144, HCT-116; type: cell-based; settings: Homo sapiens
Excerpt: as §3

[9] = PC-3, PC3 cells, read-out: IC50 value
[10] = PC3, 72 hours continuous exposure, read-out: IC50 values (mean ± SD)
[11] = 72 hours continuous exposure, read-out: IC50 values (mean ± SD)
[12] = MTT-assay, read-out: CC50 values (mean ± SD)

SMILES	IC50 [1, 9] [nM]	IC50 [1, 10] [nM]	IC50 [2] [nM]	IC50 (HEY ovarian cancer cells) [nM]	IC50 ([3]; Homo sapiens, MCF-7) [nM]	IC50 [4, 11] [nM]	IC50 [5] [nM]	IC50 [6, 11] [nM]	IC50 (CEM or HEY cells) [nM]	IC80 (MDA-MB-435 cells; Homo sapiens) [nM]	also measured
O=C(NNC(=O)c1ccccc1O)C1=CC2C=CC=CC2C=C1O (stereo not shown) [SC21]	3200 ± 200	3250	120 ± 50	400 ± 60	40 ± 7	35 ± 7	200 ± 2	200 ± 70	400 ± 60		
O=C(NNC(O)c1cc2ccccc2cc1O)c1cc2ccccc2cc1O (stereo not shown) [SC23]	2000 ± 500	2000	50 ± 19	2350	280 ± 35	240 ± 28	50 ± 14	850 ± 200	2300 ± 200	100 ± 10	CC50 (MDA-MB-435 cells): 40 ± 7 nM
O=C(NNc1nc2cc(F)ccc2n2cccc12)c1cnccn1 [SC144, Pyrazine-2-carboxylic acid N′-(7-fluoro-pyrrolo[1,2-a]quinoxalin-4-yl)-hydrazide]										10000 ± 10	CC50 ([1]; PC3, MTT-assay, read-out: CC50 values (mean ± SD)): 10000 ± 200 nM; CC50 ([2]; DU-145, MTT-assay, read-out: CC50 values (mean ± SD)): 3000 ± 300 nM; CC50 (HEY ovarian cancer cells; [12]): 1000 ± 60 nM; CC50 ([3]; Homo sapiens, MCF7, MCF-7): 1700 ± 300 nM; CC50 ([3]; MCF-7): 2000 ± 300 nM; CC50 [7]: 2500 ± 1000 nM; IC50 ([4]; MTT, 72 h, read-out: IC50): 4000 ± 100 nM; CC50 [4, 12]: 4000 ± 1400 nM; CC50 [5, 12]: 700 ± 100 nM; IC50 ([6]; hLNCaP, MTT, 72 h, read-out: IC50): 400 ± 60 nM; CC50 (UO-31 renal cancer cells): 300 nM; CC50 [8]: 17 nM; CC50 (MDA-MB-435 cells; Homo sapiens, MDA-MB-435): 4000 ± 1400 nM

From patent US20110034472A1, “Novel Compounds for Treatment of Cancer and Disorders Associated With Angiogenesis Function” (UNIVERSITY OF SOUTHERN CALIFORNIA, priority 2004, published 2011)
